Results: PMC10771296, “Plectasin: from evolution to truncation, expression, and better druggability” (Frontiers in Microbiology, 2023)
In brackets after ≈: the same amount, converted by molar mass. Entries after “also recorded” stand apart in the source; their conditions may differ. Where a SMILES comes first, the peptide text is derived from it. Bridges are numbered along the chain shown (N, C = ends).

Columns and labels:
[1] = tested on: S. aureus ATCC 43300; experiment: Inhibition zone screening of expression supernatants; format: cell-based, Staphylococcus aureus; details: induced supernatant of P. pastoris X-33 transformants, 48-well plates, 120 h
Source text: The recombinant expression vector was constructed by ligating the designed and optimized sequence to the pPICZαA inducible expression vector, relying on the preference of the codon of P. pastoris. The linearized plasmid was transferred into P. pastoris X-33 for expression and the resulting product was verified for activity using an inhibition zone assay (against S. aureus ATCC 43300) before the active peptide was expressed at a high density in a 5-L fermenter ([Mao et al., 2015]). The supernatant was purified using the AKTA Express system. The fermentation supernatant was collected by centrifugation (5,000 rmp, 30 min), filtered with micro-filtration membranes ([…]). According to the isoelectric point of the target product, the corresponding A (50 mM sodium phosphate buffer, pH 6.7) and B (50 mM sodium phosphate buffer, 600 mM NaCl, pH 6.7) buffers were configured and purified by HiPrep SP FF cation exchange column (GE Healthcare). The protein samples were eluted by increasing the NaCl concentration in a stepwise manner, and the corresponding elution peak was collected. The purified product was verified using tricine-sodium dodecyl sulfate-polyacrylamide gel electrophoresis (Tricine-SDS-PAGE) and matrix-assisted laser desorption/ionization–time-of-flight mass spectrometry (MALDITOF MS) ([Zhang et al., 2014]).
A total of 15 recombinant plasmids were constructed. […]

[2] = tested on: E. coli ATCC25922; experiment: MIC, micro broth dilution; format: cell-based; details: 1 × 10^5 CFU/mL, repeated thrice
Protocol: (§1) The minimum inhibitory concentration (MIC) of the peptides was assayed using the micro broth dilution method, which is an important indicator of the antibacterial activity of the AMPs ([Liu et al., 2021]). […] The MIC was defined as the lowest concentration of ones at which no visible bacterial growth was observed. All the assays were repeated thrice.

[3] = tested on: P. aeruginsoa CICC21630; experiment: MIC, micro broth dilution; format: cell-based; details: 1 × 10^5 CFU/mL, repeated thrice
Protocol: as §1

[4] = tested on: S. enteriditis CVCC3377; experiment: MIC, micro broth dilution; format: cell-based; details: 1 × 10^5 CFU/mL, repeated thrice
Protocol: as §1

[5] = tested on: Shigella CMCC3926; experiment: MIC, micro broth dilution; format: cell-based; details: 1 × 10^5 CFU/mL, repeated thrice
Protocol: as §1

[6] = tested on: S. aureus ATCC43300; experiment: Time-kill curve (bacterial kinetics in vitro); format: cell-based, Staphylococcus aureus; details: 1 × 10^5 CFU/mL, 37°C, 250 rpm, colony counting
Protocol: The bactericidal efficiency of Ple-AB was evaluated by plotting a time-kill curve ([Zheng et al., 2021]). Single colonies of the S. aureus ATCC43300 were picked for overnight activation, and 1% were transferred and incubated at 37°C until the logarithmic growth phase. […] Samples of 100 uL of bacteria were taken at 0, 0.5, 1, 2, 4, 6, 8, 10, 12, and 24 h, diluted, and coated to count the number of single colonies and plot the time-killing curve.

[7] = tested on: S. aureus ATCC43300; experiment: Post-antibiotic effect; format: cell-based, Staphylococcus aureus; details: 2 h exposure, 1 × 10^8 CFU/mL, then diluted 1,000 times
Protocol: They were incubated at 37°C and 250 rpm, sampled, and coated on MHA plates for colony counting every hour. Phosphate-buffered saline (PBS) was used as a negative control, and vancomycin was used as a positive control. The calculation formula for the Post-antibiotic effect (PAE) was based on previous study ([Wu et al., 2022]).

[8] = tested on: ICR mice; experiment: In vivo safety: serum biochemical indices; details: 10 mg/kg i.p. for six consecutive days
Protocol: Eight 6-week-old ICR mice were randomly divided into two groups and injected intraperitoneally with Ple-AB (10 mg/kg, body weight) and saline for six consecutive days. […] They were weighed daily, and blood was collected on the 7th day for hematological and biochemical analyses. Simultaneously, the heart, liver, spleen, lungs, and kidneys were collected for tissue fixation and hematoxylin–eosin (HE) staining to observe any pathological changes ([Shishkina et al., 2023]).

[9] = tested on: S. aureus ATCC43300; experiment: Thermal stability read out as MIC; format: physicochemical, Staphylococcus aureus; details: 1 h; for MIC after heat treatment: triplicates
Protocol: (§2) The stability of Ple-AB was assessed based on its antibacterial activity against S. aureus ATCC43300. Temperature stability was determined by incubation at 20, 40, 60, 80, and 100°C for 1 h ([Li et al., 2020]). The pH stability was determined by incubation in buffers with a pH of 2, 4, 6, 8, and 10 for 4 h ([Yang et al., 2017]). The peptides were incubated with different concentrations of metal ions, serum, artificial gastric fluid, and simulated intestinal fluid to assess their stability in the blood and intestines ([Lyu et al., 2019]). All the treatments were performed in triplicates.

[10] = tested on: S. aureus ATCC43300; experiment: pH stability read out as MIC; format: physicochemical, Staphylococcus aureus; details: for MIC after pH treatment: triplicates
Protocol: as §2

[11] = tested on: S. aureus ATCC43300; experiment: Salt (metal ion) stability read out as MIC; format: cell-based, Staphylococcus aureus; details: triplicates
Protocol: as §2

`CC[C@H](C)[C@@H]1NC(=O)[C@H](CO)NC(=O)[C@H](CCCCN)NC(=O)[C@@H]2CSSC[C@@H](C(=O)N[C@@H](Cc3ccc(O)cc3)C(=O)O)NC(=O)[C@H](CCCCN)NC(=O)[C@@H]3CSSC[C@H](NC(=O)[C@H](CCC(N)=O)NC(=O)[C@H](CCSC)NC(=O)[C@H](CCC(=O)O)NC(=O)[C@H](CC(=O)O)NC(=O)[C@H](Cc4c[nH]c5ccccc45)NC(=O)[C@@H]4CCCN4C(=O)[C@@H](NC(=O)CNC(=O)[C@H](Cc4ccccc4)NC(=O)CN)CSSC[C@H](NC(=O)[C@H](Cc4ccc(O)cc4)NC(=O)CNC(=O)CNC(=O)[C@H](CCCCN)NC(=O)[C@H](Cc4ccc(O)cc4)NC(=O)CNC(=O)[C@H](CCCCN)NC1=O)C(=O)N[C@@H](C)C(=O)N[C@@H](CCCCN)C(=O)NCC(=O)NCC(=O)N[C@@H](Cc1ccccc1)C(=O)N[C@@H](C(C)C)C(=O)N3)C(=O)N[C@@H](Cc1c[nH]cn1)C(=O)N[C@@H](CC(N)=O)C(=O)N[C@@H](Cc1c[nH]cn1)C(=O)N2` [Ple-AB] (H-GFGCPWDEMQCHNHCKSIKGYKGGYCAKGGFVCKCY-OH; disulfide 4-26, 11-33, 15-35; N-terminus and C-terminus assumed) was tested, and the “Antibacterial activity in inhibition circle screening” value [1] was “better antibacterial activity; also recorded: normal or higher activity”, the MIC [2] was >128 µg/mL and the MIC [3] was >128 µg/mL. The MIC [4] was >128 µg/mL, the MIC [5] was >128 µg/mL and the “Time to kill all the strains” value ([6]; 1× MIC) was ≤ 4 h. The “Time to kill all the strains” value ([6]; 2× MIC) was ≤ 4 h, the “Time to 99% bactericidal activity” value ([6]; 4× MIC) was ≤ 2 h and the “PAE (post-antibiotic effect)” value ([7]; 1× MIC) was 1.15 h. For the same molecule, the “PAE (post-antibiotic effect)” value ([7]; 2× MIC) was 1.18 h, the “PAE (post-antibiotic effect)” value ([7]; 4× MIC) was 2.25 h and the “Serum biochemical indices versus control group” value ([8]; blood on 7th day) was “not significantly different”. It also gave an ALT ([8]; serum on 7th day) of 49.07 ± 6.21 IU/L, an AST ([8]; serum on 7th day) of 25.85 ± 2.33 IU/L and an Albumin ([8]; serum on 7th day) of 35.59 ± 4.58 g/L. For the same molecule, the “Ca^2+” value ([8]; serum on 7th day) was 1.38 ± 0.06 mmol/L, the Creatinine ([8]; serum on 7th day) was 83.13 ± 4.57 µmol/L and the Globulin ([8]; serum on 7th day) was 18.82 ± 0.25 g/L. For the same molecule, the Glucose ([8]; serum on 7th day) was 1.59 ± 0.15 mmol/L, the Phosphorous ([8]; serum on 7th day) was 3.33 ± 0.20 mmol/L and the Total protein ([8]; serum on 7th day) was 54.41 ± 4.56 g/L. For the same molecule, the “Urea Nitrogen” value ([8]; serum on 7th day) was 11.6 ± 0.8 mmol/L, the “MIC after heat treatment” value ([9]; 20°C) was 16 µg/mL (≈ 4 µM) and the “MIC after heat treatment” value ([9]; 40°C) was 16 µg/mL (≈ 4 µM). The “MIC after heat treatment” value ([9]; 60°C) was 16 µg/mL (≈ 4 µM), the “MIC after heat treatment” value ([9]; 80°C) was 16 µg/mL (≈ 4 µM) and the “MIC after heat treatment” value ([9]; 100°C) was 32 µg/mL (≈ 8 µM). The “Increase of MIC after heat treatment” value ([9]; 100°C, versus control) was “twofold”, the “MIC after pH treatment” value ([10]; buffer pH 2, 4 h) was 16 μg/mL and the “MIC after pH treatment” value ([10]; buffer pH 4, 4 h) was 16 μg/mL. The “MIC after pH treatment” value ([10]; buffer pH 6, 4 h) was 16 μg/mL, the “MIC after pH treatment” value ([10]; buffer pH 8, 4 h) was 16 μg/mL and the “MIC after pH treatment” value ([10]; buffer pH 10, 4 h) was 32 μg/mL. The “Increase of MIC after pH treatment” value ([10]; pH 10, 4 h, versus control) was “twofold”, the MIC with salts ([11]; Ca^2+ (2.5 mM)) was 16 µg/mL and the MIC with salts ([11]; Fe^3+ (4 μM)) was 16 µg/mL. It also gave an MIC with salts ([11]; K^+ (4.5 mM)) of 16 µg/mL, an MIC with salts ([11]; Mg^2+ (1 mM)) of 16 µg/mL and an MIC with salts ([11]; NH4^+ (6 μM)) of 16 µg/mL. The MIC with salts ([11]; Na^+ (150 mM)) was 16 µg/mL and the MIC with salts ([11]; Zn^2+ (8 μM)) was 16 µg/mL.
